Data: patent publication US4717767A, “7-amino-3-(pyrazinylmethyl) or (pyridazinylmethyl)-cephalosporins” (Toyama Chemical Co., Ltd., priority 1982, dated 1988)

What was measured:
[1] = Acute toxicity, intravenous, mice; details: mouse, in vivo, mice (ICR, male, 20-24 g)
From the text: LD50 values of the following test compounds were 3 g/kg or more when the compounds were intravenously administered to mice (ICR, male, body weight 20-24 g).

[2] = Urinary recovery after oral administration to mice; format: in vivo, mice (ICR, male); details: urine, 1 mg/mouse in 0.5% CMC, 0-6 hours, 5 mice, mean ± S.E., free carboxylic acid by bioassay with Kl. pneumoniae ATCC 10031
Description: A test compound was orally administered to mice (ICR, male, 4 weeks old) in an amount of 1 mg/mouse, and a urinary recovery was determined.
In the test compounds (No. 1 and No. 2), the ester group is easily removed in a living body, whereby the compounds are converted into the corresponding free carboxylic acids. Therefore, the urinary recovery was determined by quantitatively measuring the free carboxylic acids excreted into urine.
Administration method: A test compound suspended in 0.5% CMC (Carboxy Methyl Cellulose) was orally administered.
Quantitative measurement method: The amount of free carboxylic acid was measured by bioassay (a paper-disc method) using the test organism mentioned in Table 2.

SMILES | LD50 [1] | dose excreted at 6 h [2]
CO/N=C(\C(=O)NC1C(=O)N2C(C(=O)O)=C(Cn3ccn(C)c(=O)c3=O)CSC12)c1csc(N)n1 (centres unmarked) | ≥ 3000 mg/kg | –
Cc1ccc(=O)n(CC2=C(C(=O)O)N3C(=O)C(NC(=O)/C(=N\OCC(=O)O)c4csc(N)n4)C3SC2)n1 (centres unmarked) [Compound 3] | – | 10.4 ± 1.1%
CO/N=C(\C(=O)NC1C(=O)N2C(C(=O)O)=C(Cn3nc(C)ccc3=O)CSC12)c1csc(N)n1 (centres unmarked) | ≥ 3000 mg/kg | –
CO/N=C(\C(=O)NC1C(=O)N2C(C(=O)O)=C(Cn3[nH]c(=O)ccc3=O)CSC12)c1csc(N)n1 (centres unmarked) | ≥ 3000 mg/kg | –
CO/N=C(\C(=O)NC1C(=O)N2C(C(=O)O)=C(Cn3cc[nH]c(=O)c3=O)CSC12)c1csc(N)n1 (centres unmarked) | ≥ 3000 mg/kg | –
